Measurements: the NIST ThermoML archive (doi:10.1016/j.jct.2015.04.027)

Experiment: xn = mol fraction of the nth substance listed
Conditions: 100 kPa, Liquid; for viscosity: Falling or rolling sphere viscometry; for mass density: Vibrating tube method

CN(C)C(=[NH2+])N(C)C.c1c[n-]cn1 [1,1,3,3-tetramethylguanidinium imidazol-1-ide] + CCO
Conditions | mass density, 293.15 K [kg/m3] | mass density, 298.15 K [kg/m3] | mass density, 303.15 K [kg/m3] | mass density, 308.15 K [kg/m3] | mass density, 313.15 K [kg/m3] | viscosity, 293.15 K [mPa·s] | viscosity, 298.15 K [mPa·s] | viscosity, 303.15 K [mPa·s] | viscosity, 308.15 K [mPa·s] | viscosity, 313.15 K [mPa·s]
x1 = 0.0483 | 821.2 | 816.85 | 812.47 | 808.06 | 803.63 | 1.422 | 1.289 | 1.174 | 1.072 | 0.982
x1 = 0.0999 | 848.92 | 844.52 | 840.1 | 835.66 | 831.19 | 1.714 | 1.548 | 1.405 | 1.28 | 1.17
x1 = 0.2003 | 888.15 | 883.71 | 879.24 | 874.77 | 870.28 | 2.371 | 2.114 | 1.897 | 1.711 | 1.549
x1 = 0.3001 | 916.24 | 911.78 | 907.3 | 902.82 | 898.33 | 3.145 | 2.755 | 2.438 | 2.173 | 1.949
x1 = 0.3999 | 937.23 | 932.77 | 928.29 | 923.8 | 919.31 | 4.057 | 3.498 | 3.054 | 2.69 | 2.388
x1 = 0.5 | 953.33 | 948.83 | 944.31 | 939.83 | 935.34 | 5.057 | 4.296 | 3.643 | 3.174 | 2.822
x1 = 0.643 | 970.7 | 966.31 | 961.81 | 957.39 | 952.91 | 6.351 | 5.318 | 4.452 | 3.891 | 3.384
x1 = 0.7966 | 984.34 | 979.99 | 975.53 | 971.06 | 966.6 | 7.695 | 6.345 | 5.333 | 4.539 | 3.911
x1 = 0.8987 | 991.38 | 986.93 | 982.47 | 978.02 | 973.57 | 8.46 | 6.936 | 5.786 | 4.909 | 4.229
x1 = 1 | 997.25 | 992.8 | 988.35 | 983.9 | 979.46 | 8.952 | 7.287 | 6.044 | 5.097 | 4.358

CN(C)C(=[NH2+])N(C)C.c1c[n-]cn1 [1,1,3,3-tetramethylguanidinium imidazol-1-ide] + CO
Conditions | mass density, 293.15 K [kg/m3] | mass density, 298.15 K [kg/m3] | mass density, 303.15 K [kg/m3] | mass density, 308.15 K [kg/m3] | mass density, 313.15 K [kg/m3] | viscosity, 293.15 K [mPa·s] | viscosity, 298.15 K [mPa·s] | viscosity, 303.15 K [mPa·s] | viscosity, 308.15 K [mPa·s] | viscosity, 313.15 K [mPa·s]
x1 = 0.0501 | 840.28 | 835.36 | 830.44 | 825.51 | 820.57 | 0.905 | 0.829 | 0.765 | 0.709 | 0.659
x1 = 0.1005 | 872.86 | 868.04 | 863.19 | 858.35 | 853.49 | 1.272 | 1.108 | 1.014 | 0.931 | 0.859
x1 = 0.1957 | 912.69 | 907.98 | 903.25 | 898.51 | 893.76 | 1.979 | 1.768 | 1.592 | 1.442 | 1.314
x1 = 0.2953 | 938.06 | 933.41 | 928.74 | 924.08 | 919.38 | 2.761 | 2.423 | 2.148 | 1.918 | 1.724
x1 = 0.393 | 954.84 | 950.24 | 945.62 | 941 | 936.36 | 3.723 | 3.212 | 2.804 | 2.468 | 2.192
x1 = 0.5005 | 968.24 | 963.68 | 959.1 | 954.53 | 949.94 | 4.794 | 4.098 | 3.53 | 3.077 | 2.702
x1 = 0.6431 | 980.21 | 975.69 | 971.16 | 966.63 | 962.09 | 6.21 | 5.186 | 4.369 | 3.783 | 3.274
x1 = 0.7815 | 988.47 | 983.99 | 979.49 | 975 | 970.51 | 7.421 | 6.122 | 5.141 | 4.38 | 3.777
x1 = 0.8994 | 993.77 | 989.31 | 984.84 | 980.37 | 975.91 | 8.342 | 6.826 | 5.692 | 4.819 | 4.134
x1 = 1 | 997.25 | 992.8 | 988.35 | 983.9 | 979.46 | 8.952 | 7.287 | 6.044 | 5.097 | 4.358
